Measurements from patent publication US20230131899A1, “INHIBITORS OF MICROBIALLY INDUCED AMYLOID” (Axial Therapeutics, Inc., priority 2020, published 2023).
Like-named read-outs stand apart in the source and are kept apart here.

Target: T1, E. coli CsgA (Escherichia coli, UniProt P28307)
T1 construct: made in house; host or cells: E. coli NEB 3016 slyD::kan, pET11d
Assay: In vitro ThioflavinT assay of CsgA aggregation (CsgA ThT Assay)
Type: biochemical
Conditions: 1005 minutes; for remaining activity at 25 µM: compound 25 μM; for remaining activity at 100 µM: compound 100 μM
How it was run: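 Purified C-terminal His-tagged CsgA, monomerised by desalting and 30-kDa filtration, at 2-20 μM with 20-40 μM ThT in 50 mM potassium phosphate pH 7.3, 1% DMSO, compounds 3.125-200 uM; room temperature, fluorescence (ex 438/em 495 nm) read every 15 min. Background-subtracted signal expressed as percent inhibition versus vehicle at 6-6.5 or 8-9 h, or as percent control AUC.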

[1] = read-out: CsgA ThT Assay (10 μM CsgA) % Control AUC at 1005 minutes, 25 μM (activity range), CsgA 10 μM, black plates, class symbol
[2] = read-out: CsgA ThT Assay (10 μM CsgA) % Control AUC at 1005 minutes, 25 μM, mean AUC as % of DMSO control, CsgA 10 μM, black plates
[3] = read-out: CsgA ThT Assay (10 μM CsgA) % Control AUC at 1005 minutes, 100 μM (activity range), CsgA 10 μM, black plates, class symbol
[4] = read-out: CsgA ThT Assay (10 μM CsgA) % Control AUC at 1005 minutes, 100 μM, mean AUC as % of DMSO control, CsgA 10 μM, black plates

T1 sequence (P28307 23-151): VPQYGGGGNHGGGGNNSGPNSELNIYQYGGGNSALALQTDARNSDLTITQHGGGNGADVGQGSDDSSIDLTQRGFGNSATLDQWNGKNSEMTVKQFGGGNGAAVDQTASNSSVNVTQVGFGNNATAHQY

`CN1CC(C(=O)O)n2c(c(-c3cccc(C(F)(F)F)c3)c(Cc3cccc4ccccc34)c(C(N)=O)c2=O)S1(=O)=O` (stereo not drawn) [Compound 109, 7-carbamoyl-2-methyl-8-(naphthalen-1-ylmethyl)-6-oxo-9-(3-(trifluoromethyl)phenyl)-3,4-dihydro-2H,6H-pyrido[1,2-e][1,2,5]thiadiazine-4-carboxylic acid 1,1-dioxide] showed a remaining activity at 25 µM [1] of 31 to 60%, a remaining activity at 25 µM [2] of 55% and a remaining activity at 100 µM [3] of 11 to 31%. It also gave a remaining activity at 100 µM [4] of 22%.
In the case of `CCc1c(Cc2cccc3ccccc23)c(-c2cccc(C(F)(F)F)c2)c2n(c1=O)C(C(=O)O)CN(C1CCCCC1)S2(=O)=O` (stereo not drawn) [Compound 116, 2-cyclohexyl-7-ethyl-8-(naphthalen-1-ylmethyl)-6-oxo-9-(3-(trifluoromethyl)phenyl)-3,4-dihydro-2H,6H-pyrido[1,2-e][1,2,5]thiadiazine-4-carboxylic acid 1,1-dioxide], the remaining activity at 25 µM [1] is reported as 11 to 31%, the remaining activity at 25 µM [2] is reported as 30% and the remaining activity at 100 µM [3] is reported as 31 to 60%. For the same molecule, the remaining activity at 100 µM [4] was 38%.
`CN1CC(C(=O)O)n2c1c(-c1cccc(C(F)(F)F)c1)c(Cc1cccc3ccccc13)c(Br)c2=O` (stereo not drawn) [Compound 119, 6-bromo-1-methyl-7-(naphthalen-1-ylmethyl)-5-oxo-8-(3-(trifluoromethyl)phenyl)-1,2,3,5-tetrahydroimidazo[1,2-a]pyridine-3-carboxylic acid] gave a remaining activity at 25 µM [1] of 31 to 60%, a remaining activity at 25 µM [2] of 47% and a remaining activity at 100 µM [3] of 31 to 60%. The remaining activity at 100 µM [4] was 35%.
Work on `O=C(O)C1CN(CCCO)S(=O)(=O)c2c(-c3cccc(C(F)(F)F)c3)c(Cc3cccc4ccccc34)c(NC3CCCC3)c(=O)n21` (stereo not drawn) [Compound 120, 7-(cyclopentylamino)-2-(3-hydroxypropyl)-8-(naphthalen-1-ylmethyl)-6-oxo-9-(3-(trifluoromethyl)phenyl)-3,4-dihydro-2H,6H-pyrido[1,2-e][1,2,5]thiadiazine-4-carboxylic acid 1,1-dioxide] yielded a remaining activity at 25 µM [1] of 11 to 31%, a remaining activity at 25 µM [2] of 28% and a remaining activity at 100 µM [3] of 11 to 31%. The remaining activity at 100 µM [4] was 12%.
For `O=C(O)C1CN(CCCCO)S(=O)(=O)c2c(-c3cccc(C(F)(F)F)c3)c(Cc3cccc4ccccc34)c(NC3CCCC3)c(=O)n21` (stereo not drawn) [Compound 121, 7-(cyclopentylamino)-2-(4-hydroxybutyl)-8-(naphthalen-1-ylmethyl)-6-oxo-9-(3-(trifluoromethyl)phenyl)-3,4-dihydro-2H,6H-pyrido[1,2-e][1,2,5]thiadiazine-4-carboxylic acid 1,1-dioxide], the remaining activity at 25 µM [1] was 31 to 60%, the remaining activity at 25 µM [2] was 32% and the remaining activity at 100 µM [3] was 11 to 31%. For the same molecule, the remaining activity at 100 µM [4] was 15%.
For `O=C(O)C1CN(CCCCCO)S(=O)(=O)c2c(-c3cccc(C(F)(F)F)c3)c(Cc3cccc4ccccc34)c(NC3CCCC3)c(=O)n21` (stereo not drawn) [Compound 122, 7-(cyclopentylamino)-2-(5-hydroxypentyl)-8-(naphthalen-1-ylmethyl)-6-oxo-9-(3-(trifluoromethyl)phenyl)-3,4-dihydro-2H,6H-pyrido[1,2-e][1,2,5]thiadiazine-4-carboxylic acid 1,1-dioxide], the remaining activity at 25 µM [1] was 31 to 60%, the remaining activity at 25 µM [2] was 32% and the remaining activity at 100 µM [3] was 11 to 31%. For the same molecule, the remaining activity at 100 µM [4] was 15%.
Work on `CC(C)N1CC(C(=O)O)n2c(c(-c3cccc(C(F)(F)F)c3)c(Cc3cccc4ccccc34)c(NC3CCCC3)c2=O)S1(=O)=O` (stereo not drawn) [Compound 123, 7-(cyclopentylamino)-2-isopropyl-8-(naphthalen-1-ylmethyl)-6-oxo-9-(3-(trifluoromethyl)phenyl)-3,4-dihydro-2H,6H-pyrido[1,2-e][1,2,5]thiadiazine-4-carboxylic acid 1,1-dioxide] yielded a remaining activity at 25 µM [1] of 11 to 31%, a remaining activity at 25 µM [2] of 26% and a remaining activity at 100 µM [3] of 11 to 31%. It also gave a remaining activity at 100 µM [4] of 25%.
For `CCCN1CC(C(=O)O)n2c(c(-c3cccc(C(F)(F)F)c3)c(Cc3cccc4ccccc34)c(NC3CCCC3)c2=O)S1(=O)=O` (stereo not drawn) [Compound 126, 7-(cyclopentylamino)-8-(naphthalen-1-ylmethyl)-6-oxo-2-propyl-9-(3-(trifluoromethyl)phenyl)-3,4-dihydro-2H,6H-pyrido[1,2-e][1,2,5]thiadiazine-4-carboxylic acid 1,1-dioxide], the remaining activity at 25 µM [1] was 31 to 60%, the remaining activity at 25 µM [2] was 36% and the remaining activity at 100 µM [3] was 31 to 60%. For the same molecule, the remaining activity at 100 µM [4] was 40%.
With `CCCN1CC(C(=O)O)n2c(c(-c3cccc(C(F)(F)F)c3)c(Cc3cccc4ccccc34)c(NC3CCOCC3)c2=O)S1(=O)=O` (stereo not drawn) [Compound 127, 8-(naphthalen-1-ylmethyl)-6-oxo-2-propyl-7-((tetrahydro-2H-pyran-4-yl)amino)-9-(3-(trifluoromethyl)phenyl)-3,4-dihydro-2H,6H-pyrido[1,2-e][1,2,5] thiadiazine-4-carboxylic acid 1,1-dioxide] the remaining activity at 25 µM [1] was 11 to 31%, the remaining activity at 25 µM [2] was 26% and the remaining activity at 100 µM [3] was less than 10%. For the same molecule, the remaining activity at 100 µM [4] was 7%.
